Laboratory results reported in the NIST ThermoML archive (doi:10.1021/je900306v).

Conditions: Liquid, Closed cell (Static) method

FCC(F)(F)F [1,1,1,2-tetrafluoroethane]
Conditions	vapor or sublimation pressure [kPa]
243.1 K	84.23
248.08 K	106.12
263.01 K	199.39
283.03 K	412.95
303.12 K	769.5
328.05 K	1488
352.93 K	2620.8

C=C(F)C(F)(F)F [2,3,3,3-tetrafluoro-1-propene]
Conditions	vapor or sublimation pressure [kPa]
224.12 K	38.9
228.21 K	48.3
233.12 K	62
234.21 K	65.5
238.08 K	78.7
243.03 K	98.8
247.95 K	121.7
252.91 K	149.2
255.49 K	165.3
257.7 K	180.4
258.61 K	186.9
263.14 K	221.7
268.1 K	265.1
272.98 K	313.9
277.96 K	370.5
283.09 K	437.1
288.08 K	509.4
292.87 K	587.3
297.97 K	679.4
303.12 K	783.2
308.11 K	894.6
313.09 K	1018
315.59 K	1083.5
318.08 K	1153
320.61 K	1224
323.11 K	1301.1
325.58 K	1380
333.06 K	1638.3
338.05 K	1831
343.02 K	2039
348.01 K	2265.6
352.98 K	2511.5
357.97 K	2778.2
362.94 K	3067.1
365.93 K	3218.4
